# What was measured:
# Type in all cases: in vivo
# [1] = system: Chenopodium album; assay: Weed foliar treatment test (Test 3, 1.0 to 2.0 leaf stage); details: foliar spray at 1.0 to 2.0 leaf stage of Digitaria ciliaris, 3 weeks
# Experimental: (§1) Soil was filled into a 1/6000 are pot followed by seeding with Digitaria ciliaris, Chenopodium album and Amaranthus retroflexus, covering with soil, and cultivating in a glass greenhouse at an average atmospheric temperature of 25° C. Wettable powders of Target Compound (I) shown in Table 1 prepared in compliance with the preparation examples were diluted with water to the prescribed amount of chemical and uniformly sprayed onto the weeds using 150 liters of sprayed water per 10 are when Digitaria ciliaris had grown to the 1.0 to 2.0 leaf stage. After treating for 3 weeks in a glass greenhouse at an average atmospheric temperature of 25° C., the herbicidal efficacy thereof was investigated. Evaluation of herbicidal efficacy was carried out in the same manner as the above-mentioned Test Example 1.
# [2] = system: Digitaria ciliaris; assay: as above; details: foliar spray at 1.0 to 2.0 leaf stage of Digitaria ciliaris, 3 weeks
# Experimental: as §1
# [3] = system: Amaranthus retroflexus; assay: as above; details: foliar spray at 1.0 to 2.0 leaf stage of Digitaria ciliaris, 3 weeks
# Experimental: as §1
# [4] = system: Chenopodium album; assay: Farming soil treatment test; details: soil surface spray prior to weed growth, 30 days
# Experimental: (§2) Field soil was filled into a 1/6000 are pot followed by seeding with Digitaria ciliaris, Chenopodium album and Amaranthus retroflexus and covering with soil. Wettable powders of compounds of formula (I) shown in Table 1 prepared in compliance with the preparation examples were diluted with water to the prescribed amount of chemical and uniformly sprayed onto each soil surface layer using 100 liters of sprayed water per 10 are prior to weed growth following seeding. After treating for 30 days in a glass greenhouse at an average atmospheric temperature of 30° C., the herbicidal efficacy thereof was investigated. Evaluation of herbicidal efficacy was carried out in the same manner as the above-mentioned Test Example 1.
# [5] = system: Digitaria ciliaris; assay: Farming soil treatment test; details: soil surface spray prior to weed growth, 30 days
# Experimental: as §2
# [6] = system: Amaranthus retroflexus; assay: Farming soil treatment test; details: soil surface spray prior to weed growth, 30 days
# Experimental: as §2
# [7] = system: Monochoria vaginalis; assay: Paddy herbicidal activity test; details: irrigated pot, 30 days
# Experimental: (§3) 1. Paddy Herbicidal Activity Test Rice paddy soil was filled into a 1/10000 are pot followed by the addition of suitable amounts of water and chemical fertilizer, kneading, seeding with Echinochloa crus-galli, Monochoria vaginalis and Scirpus juncoides and maintaining in an irrigated state at a water depth of 3 cm. Wettable powders of Target Compound (I) shown in Table 1 prepared in compliance with the preparation examples were diluted with a suitable amount of water, rice plants in the 2.0 leaf stage were transplanted during 3.5 leaf stage of Echinochloa crus-galli, and treated by dropping in chemical in the prescribed amount per 10 are using a pipette. After treating for 30 days in a glass greenhouse at an average atmospheric temperature of 30° C., the herbicidal efficacy thereof was investigated. Evaluation of herbicidal efficacy was carried out by comparing growth inhibition rate (%) with an untreated group, while evaluation of phytotoxicity was carried out by comparing growth inhibition rate (%) with the state of a complete eradication group, and were evaluated at 11 levels indicated below.
# [8] = system: Echinochloa crus-galli; assay: Paddy herbicidal activity test; details: irrigated pot, treated at 3.5 leaf stage of Echinochloa crus-galli, 30 days
# Experimental: as §3
# [9] = system: Scirpus juncoides; assay: Paddy herbicidal activity test; details: irrigated pot, 30 days
# Experimental: as §3
# [10] = system: Oryza sativa; assay: Paddy herbicidal activity test, phytotoxicity to transplanted rice; details: rice transplanted in 2.0 leaf stage, 30 days
# Experimental: as §3
# [11] = system: Digitaria ciliaris; assay: Weed foliar treatment test (Test 4, 4.0 to 5.0 leaf stage); details: 10 g a.i./10 a; foliar spray at 4.0 to 5.0 leaf stage of Digitaria ciliaris (plant height 10 cm to 15 cm); 20 days
# Experimental: (§4) Field soil was filled into a 1/4500 are pot followed by seeding with Digitaria ciliaris and Galinsoga parviflora, covering with soil and cultivating in a glass greenhouse at an average atmospheric temperature of 25° C.
# (§5) Wettable powders of Target Compound (I) shown in Table 1 prepared in compliance with the preparation examples were diluted with water to the prescribed amount of chemical and uniformly sprayed onto the weeds using 100 liters of sprayed water per 10 are when Digitaria ciliaris had grown to the 4.0 to 5.0 leaf stage (plant height: 10 cm to 15 cm).
# (§6) After treating for 20 days in a glass greenhouse at an average atmospheric temperature of 25° C., the herbicidal efficacy thereof was investigated.
# (§7) Evaluation of herbicidal efficacy was carried out in the same manner as the above-mentioned Test Example 1.
# [12] = system: Galinsoga parviflora; assay: as above; details: 10 g a.i./10 a; foliar spray at 4.0 to 5.0 leaf stage of Digitaria ciliaris; 20 days
# Experimental: as §4, §5, §6, §7
smiles,measurement,setting,value
"N#Cc1cnn(-c2nn3c(c2Cl)CCCC3)c1N=CC1CCCCC1 [Compound 1, 1-(3-chloro-4,5,6,7-tetrahydropyrazolo[1,5-a]pyridin-2-yl)-5-(cyclohexylmethyleneamino)pyrazole-4-carbonitrile]","herbicidal efficacy, Chenopodium album",[1]; 5 g a.i./10 a,10 (100%)
same,"herbicidal efficacy, Chenopodium album",[1]; 10 g a.i./10 a,10 (100%)
same,"herbicidal efficacy, Digitaria ciliaris",[2]; 5 g a.i./10 a,10 (100%)
same,"herbicidal efficacy, Digitaria ciliaris",[2]; 10 g a.i./10 a,10 (100%)
same,"herbicidal efficacy, Amaranthus retroflexus",[3]; 5 g a.i./10 a,10 (100%)
same,"herbicidal efficacy, Amaranthus retroflexus",[3]; 10 g a.i./10 a,10 (100%)
same,"herbicidal efficacy, Chenopodium album",[4]; 5 g a.i./10 a,9 (90% to less than 100%)
same,"herbicidal efficacy, Chenopodium album",[4]; 10 g a.i./10 a,10 (100%)
same,"herbicidal efficacy, Digitaria ciliaris",[5]; 5 g a.i./10 a,9 (90% to less than 100%)
same,"herbicidal efficacy, Digitaria ciliaris",[5]; 10 g a.i./10 a,9 (90% to less than 100%)
same,"herbicidal efficacy, Amaranthus retroflexus",[6]; 5 g a.i./10 a,10 (100%)
same,"herbicidal efficacy, Amaranthus retroflexus",[6]; 10 g a.i./10 a,10 (100%)
same,"herbicidal efficacy, Monochoria vaginalis",[7]; 1 g a.i./10 a,9 (90% to less than 100%)
same,"herbicidal efficacy, Monochoria vaginalis",[7]; 5 g a.i./10 a,10 (100%)
same,"herbicidal efficacy, Echinochloa crus-galli",[8]; 1 g a.i./10 a,10 (100%)
same,"herbicidal efficacy, Echinochloa crus-galli",[8]; 5 g a.i./10 a,10 (100%)
same,"herbicidal efficacy, Scirpus juncoides",[9]; 1 g a.i./10 a,9 (90% to less than 100%)
same,"herbicidal efficacy, Scirpus juncoides",[9]; 5 g a.i./10 a,10 (100%)
same,"phytotoxicity, Oryza sativa",[10]; 1 g a.i./10 a,0 (0% to less than 10% (growth inhibition rate))
same,"phytotoxicity, Oryza sativa",[10]; 5 g a.i./10 a,0 (0% to less than 10% (growth inhibition rate))
N#Cc1cnn(-c2nn3c(c2Cl)CCCC3)c1N=C1CCCC1 [Compound 8],"herbicidal efficacy, Digitaria ciliaris",[11],10 (100%)
same,"herbicidal efficacy, Galinsoga parviflora",[12],10 (100%)
N#Cc1cnn(-c2nn3c(c2Cl)CCCC3)c1N=Cc1ccccc1OC(F)F [Compound 12],"herbicidal efficacy, Digitaria ciliaris",[11],10 (100%)
same,"herbicidal efficacy, Galinsoga parviflora",[12],10 (100%)
N#Cc1cnn(-c2nn3c(c2Cl)CCCC3)c1N=Cc1ccccc1F [Compound 13],"herbicidal efficacy, Digitaria ciliaris",[11],10 (100%)
same,"herbicidal efficacy, Galinsoga parviflora",[12],10 (100%)
N#Cc1cnn(-c2nn3c(c2Cl)CCCC3)c1N=Cc1cccc(Cl)c1 [Compound 17],"herbicidal efficacy, Digitaria ciliaris",[11],10 (100%)
same,"herbicidal efficacy, Galinsoga parviflora",[12],10 (100%)
Cc1ccc(C=Nc2c(C#N)cnn2-c2nn3c(c2Cl)CCCC3)cc1 [Compound 18],"herbicidal efficacy, Digitaria ciliaris",[11],10 (100%)
same,"herbicidal efficacy, Galinsoga parviflora",[12],10 (100%)
N#Cc1cnn(-c2nn3c(c2Cl)CCCC3)c1N=Cc1ccc(C(F)(F)F)cc1 [Compound 19],"herbicidal efficacy, Digitaria ciliaris",[11],10 (100%)
same,"herbicidal efficacy, Galinsoga parviflora",[12],10 (100%)
N#Cc1cnn(-c2nn3c(c2Cl)CCCC3)c1N=Cc1ccc(Cl)cc1 [Compound 20],"herbicidal efficacy, Digitaria ciliaris",[11],10 (100%)
same,"herbicidal efficacy, Galinsoga parviflora",[12],10 (100%)
N#Cc1cnn(-c2nn3c(c2Cl)CCCC3)c1N=Cc1ccccn1 [Compound 21],"herbicidal efficacy, Digitaria ciliaris",[11],10 (100%)
same,"herbicidal efficacy, Galinsoga parviflora",[12],10 (100%)
N#Cc1cnn(-c2nn3c(c2Cl)CCCC3)c1N=Cc1cccnc1 [Compound 22],"herbicidal efficacy, Chenopodium album",[4]; 5 g a.i./10 a,9 (90% to less than 100%)
same,"herbicidal efficacy, Chenopodium album",[4]; 10 g a.i./10 a,10 (100%)
same,"herbicidal efficacy, Digitaria ciliaris",[5]; 5 g a.i./10 a,9 (90% to less than 100%)
same,"herbicidal efficacy, Digitaria ciliaris",[5]; 10 g a.i./10 a,9 (90% to less than 100%)
same,"herbicidal efficacy, Amaranthus retroflexus",[6]; 5 g a.i./10 a,10 (100%)
same,"herbicidal efficacy, Amaranthus retroflexus",[6]; 10 g a.i./10 a,10 (100%)
same,"herbicidal efficacy, Monochoria vaginalis",[7]; 1 g a.i./10 a,10 (100%)
same,"herbicidal efficacy, Monochoria vaginalis",[7]; 5 g a.i./10 a,10 (100%)
same,"herbicidal efficacy, Echinochloa crus-galli",[8]; 1 g a.i./10 a,10 (100%)
same,"herbicidal efficacy, Echinochloa crus-galli",[8]; 5 g a.i./10 a,10 (100%)
same,"herbicidal efficacy, Scirpus juncoides",[9]; 1 g a.i./10 a,10 (100%)
same,"herbicidal efficacy, Scirpus juncoides",[9]; 5 g a.i./10 a,10 (100%)
same,"herbicidal efficacy, Digitaria ciliaris",[11],9 (90% to less than 100%)
same,"herbicidal efficacy, Galinsoga parviflora",[12],10 (100%)
same,"phytotoxicity, Oryza sativa",[10]; 1 g a.i./10 a,0 (0% to less than 10% (growth inhibition rate))
same,"phytotoxicity, Oryza sativa",[10]; 5 g a.i./10 a,1 (10% to less than 20%)
CC(=Nc1c(C#N)cnn1-c1nn2c(c1Cl)CCCC2)c1ccccn1 [Compound 24],"herbicidal efficacy, Digitaria ciliaris",[11],10 (100%)
same,"herbicidal efficacy, Galinsoga parviflora",[12],10 (100%)
CC(=Nc1c(C#N)cnn1-c1nn2c(c1Cl)CCCC2)c1cccnc1 [Compound 25],"herbicidal efficacy, Digitaria ciliaris",[11],10 (100%)
same,"herbicidal efficacy, Galinsoga parviflora",[12],10 (100%)
CC(=Nc1c(C#N)cnn1-c1nn2c(c1Cl)CCCC2)c1cnccn1 [Compound 27],"herbicidal efficacy, Digitaria ciliaris",[11],10 (100%)
same,"herbicidal efficacy, Galinsoga parviflora",[12],10 (100%)
N#Cc1cnn(-c2nn3c(c2Cl)CCCC3)c1N=Cc1ccc[nH]1 [Compound 28],"herbicidal efficacy, Digitaria ciliaris",[11],10 (100%)
same,"herbicidal efficacy, Galinsoga parviflora",[12],10 (100%)
CC(=Nc1c(C#N)cnn1-c1nn2c(c1Cl)CCCC2)c1ccc[nH]1 [Compound 29],"herbicidal efficacy, Chenopodium album",[1]; 5 g a.i./10 a,10 (100%)
same,"herbicidal efficacy, Chenopodium album",[1]; 10 g a.i./10 a,10 (100%)
same,"herbicidal efficacy, Digitaria ciliaris",[2]; 5 g a.i./10 a,9 (90% to less than 100%)
same,"herbicidal efficacy, Digitaria ciliaris",[2]; 10 g a.i./10 a,10 (100%)
same,"herbicidal efficacy, Amaranthus retroflexus",[3]; 5 g a.i./10 a,9 (90% to less than 100%)
same,"herbicidal efficacy, Amaranthus retroflexus",[3]; 10 g a.i./10 a,10 (100%)
same,"herbicidal efficacy, Digitaria ciliaris",[11],10 (100%)
same,"herbicidal efficacy, Galinsoga parviflora",[12],10 (100%)
N#Cc1cnn(-c2nn3c(c2Cl)CCCC3)c1N=Cc1ccsc1 [Compound 31],"herbicidal efficacy, Digitaria ciliaris",[11],10 (100%)
same,"herbicidal efficacy, Galinsoga parviflora",[12],10 (100%)
N#Cc1cnn(-c2nn3c(c2Cl)CCCC3)c1N=Cc1ccoc1 [Compound 32],"herbicidal efficacy, Digitaria ciliaris",[11],10 (100%)
same,"herbicidal efficacy, Galinsoga parviflora",[12],10 (100%)
CCOC=Nc1c(C#N)cnn1-c1nn2c(c1Cl)CCCC2 [Compound 34],"herbicidal efficacy, Digitaria ciliaris",[11],9 (90% to less than 100%)
same,"herbicidal efficacy, Galinsoga parviflora",[12],10 (100%)
CC(C)OC=Nc1c(C#N)cnn1-c1nn2c(c1Cl)CCCC2 [Compound 36],"herbicidal efficacy, Digitaria ciliaris",[11],10 (100%)
same,"herbicidal efficacy, Galinsoga parviflora",[12],10 (100%)
CCCCOC=Nc1c(C#N)cnn1-c1nn2c(c1Cl)CCCC2 [Compound 37],"herbicidal efficacy, Digitaria ciliaris",[11],10 (100%)
same,"herbicidal efficacy, Galinsoga parviflora",[12],10 (100%)

# Reference: US10165777B2, “Substituted pyrazolylpyrazole derivative and use of same as herbicide” (KYOYU AGRI CO., LTD., priority 2015, dated 2019)
